Experimental data published in patent US20020183256A1, “Cytostatic-integrin conjugates having specifically cleavable linking units” (priority 2000, published 2002).
Where two headings read alike, the source gives them in different places. *1 amine or outer side, *2 acyl side, *3 side chain or, on linkers, in order; H or OH if unused. Where a SMILES comes first, the peptide text is derived from it. [ ]: non-standard residue; d: D form. The star is where a group is joined. ξ: configuration not given here. Camptothecin(20R,20-O) = CC[C@]1(O*)C(=O)OCc2c1cc1n(c2=O)Cc2cc3ccccc3nc2-1; X1 = CCCNC(=O)Nc1cccc(S(=O)(=O)Nc2cccc(C(CC(=O)O)N*)c2)c1; NH(1,4-C6H4)NHCS = S=C(Nc1ccc(N[*:1])cc1)[*:2]; ξH = NC(Cc1c[nH]cn1)C(=O)O; CO = O=C([*:1])[*:2]

What was measured:
[1] = tested on: HT29; experiment: Growth inhibition test (MTT), cytotoxic action on tumour cell lines; assay type: cell-based, human
Method: (§1) The human large intestine cell lines SW 480 and HT29 (ATCC No. CCL 228 and HTB38 and the mouse melanoma cell line B16F10 (CRL 6475) were grown to confluence in Roux dishes in RPMI 1640 medium with addition of 10% FCS. They were then trypsinized and taken up in RPMI plus 10% FCS to a cell count of 50,000 cells or, for B16F10, 20,000 cells per ml. 100 μl of cell suspension/well were added to a 96 microwell plate and incubated at 37° C. for 1 day in a CO2 incubator. A further 100 μl of RPMI medium and 1 μl of DMSO were then added with the test substances. The growth was checked after day 6. For this, 25 μl of MTT solution (3-(4,5-dimethylthiazol-2-yl)-2,5-diphenyltetrazolium bromide) was added to each well at a starting concentration of 5 mg/ml of H2O. The plate was incubated at 37° C. for 5 hours in a CO2 incubator. The medium was then aspirated and 100 μl of i-propanol/well were added. After shaking with 100 μl of H2O for 30 min, the extinction was measured at 595 nm using a Multiplate Reader (BIO-RAD) 3550-UV).
(§2) The cytostatic action is indicated in Table 2 as an IC50 value, in each case for the individual cell lines.

[2] = tested on: SW 480; experiment: as above; assay type: cell-based, human
Method: as §1, §2

[3] = tested on: B16F10; experiment: as above; assay type: cell-based, mouse
Method: as §1, §2

[4] = molecular target: T1, αvβ3 receptor (Homo sapiens, UniProt P05106+P06756); experiment: αvβ3 binding test (echistatin displacement, WGA SPA beads); details: IC50 values of the binding to the αvβ3 receptor, αvβ3 from human A375 cells
T1 construct: αvβ3 from human A375 cells was purified; endogenous in cells; host or cells: human A375 cells (receptor purified from the cells, analogous to Wong et al. 1996)
Method: αvβ3 from human A375 cells was purified analogously to a procedure which was described by Wong et al. (Molecular Pharmacology, 50, 529-537 (1996)). In each case, 10 μl of αvβ3 (5 ng) in TBS pH 7.6, 2 mM CaCl2, 1 mM MgCl2, 1% n-octylglucopyranoside (Sigma); 10 μl of test substance in TBS pH 7.6, 0.1% DMSO and 45 μl of TBS pH 7.6, 2 mM CaCl2, 1 mM MgCl2, 1 mM MnCl2 were incubated at room temperature for 1 h. In each case, 25 μl of WGA SPA beads (Amersham, 4 mg/ml) and 10 μl of echistatin (0.1 μCi, Amersham, chloramine-T labelled) were then added. After 16 hours at room temperature, the samples were measured in a scintillation measuring apparatus (Wallac 1450).

[5] = HT29, MTT after day 6, read-out: IC50 values of the cytotoxic action on tumour cell lines, HT29
[6] = SW480, MTT after day 6, read-out: IC50 values of the cytotoxic action on tumour cell lines, SW480
[7] = B16F10, MTT after day 6, read-out: IC50 values of the cytotoxic action on tumour cell lines, B16F10

T1 sequence (P06756 31-889 limits assumed): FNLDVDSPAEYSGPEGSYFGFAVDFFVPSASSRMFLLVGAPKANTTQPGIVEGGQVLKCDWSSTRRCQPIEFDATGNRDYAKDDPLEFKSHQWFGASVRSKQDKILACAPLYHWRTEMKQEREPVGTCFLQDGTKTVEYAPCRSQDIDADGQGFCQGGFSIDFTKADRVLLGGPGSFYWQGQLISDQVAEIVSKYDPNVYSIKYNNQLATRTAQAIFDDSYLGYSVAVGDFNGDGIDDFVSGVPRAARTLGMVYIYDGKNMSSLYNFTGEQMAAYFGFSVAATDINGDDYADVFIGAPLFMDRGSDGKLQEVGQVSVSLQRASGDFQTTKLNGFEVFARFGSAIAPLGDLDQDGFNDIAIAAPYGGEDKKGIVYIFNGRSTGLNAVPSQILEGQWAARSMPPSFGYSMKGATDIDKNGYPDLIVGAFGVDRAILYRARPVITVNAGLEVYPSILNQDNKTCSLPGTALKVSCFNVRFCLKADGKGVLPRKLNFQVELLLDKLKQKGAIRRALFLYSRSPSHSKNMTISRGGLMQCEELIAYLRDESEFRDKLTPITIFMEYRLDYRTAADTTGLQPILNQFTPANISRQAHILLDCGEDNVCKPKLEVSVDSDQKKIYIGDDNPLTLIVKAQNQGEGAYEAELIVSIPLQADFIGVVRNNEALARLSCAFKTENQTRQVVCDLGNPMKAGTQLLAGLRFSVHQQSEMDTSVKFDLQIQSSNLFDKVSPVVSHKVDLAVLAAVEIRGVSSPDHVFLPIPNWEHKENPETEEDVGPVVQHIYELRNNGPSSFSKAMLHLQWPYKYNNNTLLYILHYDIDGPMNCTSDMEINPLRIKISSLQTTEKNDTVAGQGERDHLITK
T1 sequence (P06756 891-1048 partner limits assumed): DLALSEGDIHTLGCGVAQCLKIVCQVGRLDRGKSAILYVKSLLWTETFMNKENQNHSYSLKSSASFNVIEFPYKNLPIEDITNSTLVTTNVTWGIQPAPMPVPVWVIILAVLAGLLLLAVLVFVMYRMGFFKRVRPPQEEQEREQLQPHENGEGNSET
T1 sequence (P05106 27-788): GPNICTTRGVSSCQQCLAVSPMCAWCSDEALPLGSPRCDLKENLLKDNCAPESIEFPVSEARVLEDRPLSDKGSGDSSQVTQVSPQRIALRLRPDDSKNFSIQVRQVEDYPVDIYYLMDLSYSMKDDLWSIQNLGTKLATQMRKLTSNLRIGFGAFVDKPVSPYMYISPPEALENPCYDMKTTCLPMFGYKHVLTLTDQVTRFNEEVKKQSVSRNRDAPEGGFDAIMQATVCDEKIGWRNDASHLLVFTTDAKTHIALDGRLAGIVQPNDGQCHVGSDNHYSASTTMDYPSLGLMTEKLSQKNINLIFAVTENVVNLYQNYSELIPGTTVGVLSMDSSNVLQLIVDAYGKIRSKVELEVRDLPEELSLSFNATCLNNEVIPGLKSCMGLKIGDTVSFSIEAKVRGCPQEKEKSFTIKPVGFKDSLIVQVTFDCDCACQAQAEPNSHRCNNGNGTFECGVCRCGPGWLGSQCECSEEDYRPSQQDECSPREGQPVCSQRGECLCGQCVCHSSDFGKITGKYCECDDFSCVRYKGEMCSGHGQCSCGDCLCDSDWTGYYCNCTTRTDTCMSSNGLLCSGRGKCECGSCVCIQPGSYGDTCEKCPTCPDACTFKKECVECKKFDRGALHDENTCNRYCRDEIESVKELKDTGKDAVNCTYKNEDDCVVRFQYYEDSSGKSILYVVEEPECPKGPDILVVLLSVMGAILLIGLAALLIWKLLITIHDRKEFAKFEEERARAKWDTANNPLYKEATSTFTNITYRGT

SMILES	IC50 [1, 5]	IC50 [2, 6]	IC50 [3, 7]	IC50 ([1]; human, 6 day)	IC50 ([2]; human, 6 day)	IC50 ([3]; mouse, 6 day)	IC50 [4]
CCCNC(=O)Nc1cccc(S(=O)(=O)Nc2cccc(C(CC(=O)O)NC(=O)Nc3ccc(NC(=S)N4CCC[C@@H]4C(=O)NCC(=O)NCC(=O)N[C@H](CC(C)C)C(=O)N[C@H](CC(N)=O)C(=O)N[C@@H](C(=O)O[C@@]4(CC)C(=O)OCc5c4cc4n(c5=O)Cc5cc6ccccc6nc5-4)C(C)C)cc3)c2)c1 (stereo partly drawn) [Example 23] ({X1-CO}-[NH(1,4-C6H4)NHCS][dP]GG[dL][dN][dV]-{Camptothecin(20R,20-O)})	150 nM	400 nM	1500 nM	–	–	–	–
CCCNC(=O)Nc1cccc(S(=O)(=O)Nc2cccc(C(CC(=O)O)NC(=O)Nc3ccc(NC(=S)N4CCC[C@@H]4C(=O)N4CCC[C@@H]4C(=O)N[C@@H](CC(C)C)C(=O)NCC(=O)N[C@H](CC(C)C)C(=O)N[C@H](CC(N)=O)C(=O)N[C@@H](C(=O)O[C@@]4(CC)C(=O)OCc5c4cc4n(c5=O)Cc5cc6ccccc6nc5-4)C(C)C)cc3)c2)c1 (single isomer, unassigned) [Example 28]	30 nM	30 nM	250 nM	–	–	–	–
CCCNC(=O)Nc1cccc(S(=O)(=O)Nc2cccc(C(CC(=O)O)NC(=O)Nc3ccc(NC(=S)N4CCC[C@@H]4C(=O)N[C@@H](CC(C)C)C(=O)NCC(=O)N[C@H](Cc4c[nH]cn4)C(=O)N[C@@H](C(=O)O[C@@]4(CC)C(=O)OCc5c4cc4n(c5=O)Cc5cc6ccccc6nc5-4)C(C)C)cc3)c2)c1 (single isomer, unassigned) [Example 26]	50 nM	90 nM	300 nM	–	–	–	–
CCCNC(=O)Nc1cccc(S(=O)(=O)Nc2cccc(C(CC(=O)O)NC(=O)Nc3ccc(NC(=S)N4CCC[C@H]4C(=O)N[C@@H](CC(C)C)C(=O)NCC(=O)N[C@@H](CC(C)C)C(=O)N[C@@H](CCC(=O)O)C(=O)N[C@H](C(=O)O[C@]4(CC)C(=O)OCc5c4cc4n(c5=O)Cc5cc6ccccc6nc5-4)C(C)C)cc3)c2)c1 (stereo partly shown) [Example 36]	–	–	–	100 nM	150 nM	300 nM	–
CCCNC(=O)Nc1cccc(S(=O)(=O)Nc2cccc(C(CC(=O)O)NC(=O)Nc3ccc(NC(=S)N4CCCC4C(=O)NC(CC(C)C)C(=O)NCC(=O)N[C@H](CC(C)C)C(=O)N[C@@H](C(=O)O[C@@]4(CC)C(=O)OCc5c4cc4n(c5=O)Cc5cc6ccccc6nc5-4)C(C)C)cc3)c2)c1 (stereo partly shown) [Example 8]	150 nM	200 nM	350 nM	–	–	–	30 nM
CCCNC(=O)Nc1cccc(S(=O)(=O)Nc2cccc(C(CC(=O)O)NC(=O)Nc3ccc(NC(=S)N4CCC[C@H]4C(=O)N[C@@H](CC(C)C)C(=O)NCC(=O)N[C@@H](CC(C)C)C(=O)NCC(=O)N[C@H](C(=O)O[C@]4(CC)C(=O)OCc5c4cc4n(c5=O)Cc5cc6ccccc6nc5-4)C(C)C)cc3)c2)c1 (stereo partly shown) [Example 37]	300 nM	500 nM	–	–	–	–	–
CCCNC(=O)Nc1cccc(S(=O)(=O)Nc2cccc(C(CC(=O)O)NC(=O)Nc3ccc(NC(=S)N4CCC[C@H]4C(=O)N[C@@H](CC(C)C)C(=O)NCC(=O)N[C@@H](CC(C)C)C(=O)N[C@H](C)C(=O)N[C@H](C(=O)O[C@]4(CC)C(=O)OCc5c4cc4n(c5=O)Cc5cc6ccccc6nc5-4)C(C)C)cc3)c2)c1 (stereo partly shown) [Example 31]	250 nM	300 nM	–	–	–	–	–
CCCNC(=O)Nc1cccc(S(=O)(=O)Nc2cccc(C(CC(=O)O)NC(=O)Nc3ccc(NC(=S)N4CCC[C@H]4C(=O)N[C@@H](CC(C)C)C(=O)NCC(=O)N[C@@H](CC(C)C)C(=O)N[C@H](C(=O)N[C@H](C(=O)O[C@]4(CC)C(=O)OCc5c4cc4n(c5=O)Cc5cc6ccccc6nc5-4)C(C)C)C(C)CC)cc3)c2)c1 (stereo partly shown) [Example 35]	150 nM	200 nM	800 nM	–	–	–	–
CCCNC(=O)Nc1cccc(S(=O)(=O)Nc2cccc(C(CC(=O)O)NC(=O)Nc3ccc(NC(=S)N4CCC[C@H]4C(=O)N[C@@H](CC(C)C)C(=O)NCC(=O)N[C@@H](CC(C)C)C(=O)N[C@H](C(=O)N[C@H](C(=O)O[C@]4(CC)C(=O)OCc5c4cc4n(c5=O)Cc5cc6ccccc6nc5-4)C(C)C)C(C)C)cc3)c2)c1 (stereo partly shown) [Example 32]	100 nM	120 nM	200 nM	–	–	–	–
CCCNC(=O)Nc1cccc(S(=O)(=O)Nc2cccc(C(CC(=O)O)NC(=O)Nc3ccc(NC(=S)N4CCC[C@@H]4C(=O)N[C@@H](CC(C)C)C(=O)NCC(=O)N[C@H](CC(C)C)C(=O)N[C@@H](C(=O)O[C@@]4(CC)C(=O)OCc5c4cc4n(c5=O)Cc5cc6ccccc6nc5-4)C(C)C)cc3)c2)c1 (single isomer, unassigned) [Example 27]	150 nM	200 nM	800 nM	–	–	–	–
CCCNC(=O)Nc1cccc(S(=O)(=O)Nc2cccc(C(CC(=O)O)NC(=O)Nc3ccc(NC(=S)N4CCC[C@H]4C(=O)N[C@@H](CC(C)C)C(=O)NCC(=O)N[C@@H](CC(C)C)C(=O)N[C@@H](Cc4ccccc4)C(=O)N[C@H](C(=O)O[C@]4(CC)C(=O)OCc5c4cc4n(c5=O)Cc5cc6ccccc6nc5-4)C(C)C)cc3)c2)c1 (stereo partly shown) [Example 33]	300 nM	400 nM	1000 nM	–	–	–	–
CCCNC(=O)Nc1cccc(S(=O)(=O)Nc2cccc(C(CC(=O)O)NC(=O)Nc3ccc(NC(=S)N4CCC[C@@H]4C(=O)NC(Cc4c[nH]cn4)C(=O)NCC(=O)N[C@H](CC(C)C)C(=O)N[C@H](CC(N)=O)C(=O)N[C@@H](C(=O)O[C@@]4(CC)C(=O)OCc5c4cc4n(c5=O)Cc5cc6ccccc6nc5-4)C(C)C)cc3)c2)c1 (stereo partly drawn) [Example 24] ({X1-CO}-[NH(1,4-C6H4)NHCS][dP][ξH]G[dL][dN][dV]-{Camptothecin(20R,20-O)})	150 nM	400 nM	900 nM	–	–	–	–
CCCNC(=O)Nc1cccc(S(=O)(=O)Nc2cccc(C(CC(=O)O)NC(=O)Nc3ccc(NC(=S)N4CCC[C@H]4C(=O)N[C@@H](CC(C)C)C(=O)NCC(=O)N[C@@H](CC(C)C)C(=O)N[C@@H](C)C(=O)N[C@H](C(=O)O[C@]4(CC)C(=O)OCc5c4cc4n(c5=O)Cc5cc6ccccc6nc5-4)C(C)C)cc3)c2)c1 (stereo partly shown) [Example 30]	400 nM	500 nM	–	–	–	–	–
CCCNC(=O)Nc1cccc(S(=O)(=O)Nc2cccc(C(CC(=O)O)NC(=O)Nc3ccc(NC(=S)N4CCC[C@@H]4C(=O)N[C@@H](CC(C)C)C(=O)NCC(=O)N[C@H](CCC)C(=O)N[C@H](CC(N)=O)C(=O)N[C@@H](C(=O)O[C@@]4(CC)C(=O)OCc5c4cc4n(c5=O)Cc5cc6ccccc6nc5-4)C(C)C)cc3)c2)c1 (single isomer, unassigned) [Example 21]	30 nM	60 nM	200 nM	–	–	–	–
CCCNC(=O)Nc1cccc(S(=O)(=O)Nc2cccc(C(CC(=O)O)NC(=O)Nc3ccc(NC(=S)NCC(=O)N4CCC[C@@H]4C(=O)N[C@@H](CC(C)C)C(=O)NCC(=O)N[C@H](CC(C)C)C(=O)N[C@H](Cc4c[nH]cn4)C(=O)N[C@@H](C(=O)O[C@@]4(CC)C(=O)OCc5c4cc4n(c5=O)Cc5cc6ccccc6nc5-4)C(C)C)cc3)c2)c1 (single isomer, unassigned) [Example 29]	80 nM	100 nM	400 nM	–	–	–	–
CCCNC(=O)Nc1cccc(S(=O)(=O)Nc2cccc(C(CC(=O)O)NC(=O)Nc3ccc(NC(=S)N4CCC[C@H]4C(=O)N[C@@H](CC(C)C)C(=O)NCC(=O)N[C@@H](CC(C)C)C(=O)N[C@@H](CO)C(=O)N[C@H](C(=O)O[C@]4(CC)C(=O)OCc5c4cc4n(c5=O)Cc5cc6ccccc6nc5-4)C(C)C)cc3)c2)c1 (stereo partly shown) [Example 34]	50 nM	100 nM	800 nM	–	–	–	–
CCCNC(=O)Nc1cccc(S(=O)(=O)Nc2cccc(C(CC(=O)O)NC(=O)Nc3ccc(NC(=S)N4CCC[C@H]4C(=O)N[C@@H](CC(C)C)C(=O)NCC(=O)N[C@@H](CC(C)C)C(=O)N4CCC[C@H]4C(=O)N[C@H](C(=O)O[C@]4(CC)C(=O)OCc5c4cc4n(c5=O)Cc5cc6ccccc6nc5-4)C(C)C)cc3)c2)c1 (stereo partly shown) [Example 38]	150 nM	200 nM	1000 nM	–	–	–	–
CCCCNC(=O)Nc1cccc(S(=O)(=O)Nc2cccc(C(CC(=O)O)NC(=O)Nc3ccc(NC(=S)NCC(=O)N4CCC[C@@H]4C(=O)N[C@@H](CC(C)C)C(=O)NCC(=O)N[C@H](CC(C)C)C(=O)N[C@H](CC(N)=O)C(=O)N[C@@H](C(=O)O[C@@]4(CC)C(=O)OCc5c4cc4n(c5=O)Cc5cc6ccccc6nc5-4)C(C)C)cc3)c2)c1 (single isomer, unassigned) [Example 22]	15 nM	30 nM	90 nM	–	–	–	–
